The target in data set [1] is α7 nicotinic ACh receptors (Homo sapiens, UniProt P36544). In words: Electrophysiology, dose-response at α7 nicotinic ACh receptors. In kind it is cell-based.
Data set [2] in a line: Aqueous solubility (salt screen). The conditions noted are these: free base form.
Data set [3] concerns ovalbumin-sensitized mice. Nature of the data set: Airway hyperresponsiveness, Penh response to methacholine. The conditions noted are these: for Methacholine-induced increase in Penh values: FIG. 21. Type of data set: in vivo, mouse. As to the method:
(§1) Using the method of Hamelmann et al, (2S,3R)—N-2-((3-pyridinyl)methyl)-1-azabicyclo[2.2.2]oct-3-yl)-3,5-difluorobenzamide was evaluated for possible inhibition of airway hyper-responsiveness in mice. Briefly, ovalbumin (OVA)-sensitized animals, 12 animals per group, were challenged by nasal inhalation with aerosolized 5% OVA for 25 min on days 21, 23, and 25. The mice were treated with vehicle or (2S,3R)—N-2-((3-pyridinyl)methyl)-1-azabicyclo[2.2.2]oct-3-yl)-3,5-difluorobenzamide subcutaneously (s.c.) twice daily from day 21 to day 26 or once daily intratracheally (i.t.), preceding ovalbumin aerosol challenge by 30 min on days 21, 23 and 25 as well as methacholine challenge or bronchoalveolar lavage fluids (BALF) harvest on day 26. Dexamethasone, the reference standard, was administered at 3 mg/kg orally (p.o.) once daily 60 min before OVA challenge on day 21, 23 and 25 and 60 min before methacholine provocation or BALF harvest on day 26. Noninvasive measurements of airway responsiveness were performed by using whole body plethysmography, in which increases in enhanced pause (Penh) serve as an index of airway obstruction. Responses to inhaled methacholine were measured and calculated as percentage of respective baseline values. Unpaired Student's t-test was used for comparison between the vehicle control and the sham group; one-way ANOVA and Dunnett's post-hoc analyses were applied for comparison between the vehicle control and treated groups. Statistical significance is considered at P<0.05.

The test system of data set [4] is Sprague-Dawley rats. Nature of the data set: Complete Freund's adjuvant (CFA)-induced thermal hyperalgesia. Type of data set: in vivo, rat. Conditions: 0.1, 1 or 10 mg/kg s.c., 1 hour post-dose, vs vehicle. From the text: Briefly, adult male Sprague-Dawley rats (BioLasco, Taiwan) weighing 180±20 g on receipt were randomly assigned to treatment groups of n=8 per group. […] A subject was placed within a plastic box atop an elevated glass floor and a light beam located under the glass floor was directed at the plantar surface of the right hind paw. The time required for the animal to withdraw the paw from the thermal stimulus was automatically recorded. The intensity of the light was adjusted to evoke an average group baseline latency from 12-14 seconds (pre-CFA) and a cut-off latency of 20 seconds was imposed. The latency for paw withdrawal was obtained for each rat and defined as the heat pain threshold.
Test substance, morphine and vehicle were administered by subcutaneous (s.c.) injection at time 0. The post-treatment level of thermal hyperalgesia was then measured at 60 minutes post-treatment. One-way ANOVA followed by Dunnett's test was applied for comparison between test substance treated groups and vehicle control group. Activity was considered significant at the P<0.05 level.

The target of data set [5] is nicotinic α7 receptor (Homo sapiens, UniProt P36544). Nature of the data set: Electrophysiology, co-application with ACh (hump currents, Dynaflow chip). Type of data set: cell-based. As to the method: Hump currents are defined as the tail current observed during co-application with endogenous ACh following agonist removal.
Sequence of nicotinic α7 receptor (P36544 23-502): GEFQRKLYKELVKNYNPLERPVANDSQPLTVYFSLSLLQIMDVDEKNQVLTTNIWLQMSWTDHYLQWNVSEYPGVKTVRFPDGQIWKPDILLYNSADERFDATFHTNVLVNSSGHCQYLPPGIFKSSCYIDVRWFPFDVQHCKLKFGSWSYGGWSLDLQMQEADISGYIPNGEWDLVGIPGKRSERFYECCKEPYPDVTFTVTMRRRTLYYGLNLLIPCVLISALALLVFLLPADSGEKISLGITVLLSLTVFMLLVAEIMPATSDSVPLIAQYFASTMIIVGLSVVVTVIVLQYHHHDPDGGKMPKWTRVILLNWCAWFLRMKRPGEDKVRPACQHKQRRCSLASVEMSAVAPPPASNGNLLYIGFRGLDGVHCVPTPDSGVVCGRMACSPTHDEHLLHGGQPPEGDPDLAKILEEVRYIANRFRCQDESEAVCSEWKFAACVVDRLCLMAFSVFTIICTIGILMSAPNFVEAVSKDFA
The channels were prepared as follows: Control solution (channel #2), application ligand itself (channel #3), application of acetylcholine itself (channel #1), and application of mixture of acetylcholine and ligand (channel #4).
Curve 1, FIG. 7B: The bar above the curve indicates time of ACh application. The curve represents current induced by a one second application of 70 μM ACh. The curve illustrates the result from moving the cell from channel #2 to channel #1 for a 1 second application of ACh and back to channel 2 (washout).
Curve 4, FIG. 7B: Curve 4 represents a repetition of Curve 1 at the end of measurements after application of the ligand and ACh/ligand mixture (recovery).
Curve 2, FIG. 7B: The down/up arrows indicates time of application.

For data set [6], the system named is STZ rat model of diabetic neuropathy. Nature of the data set: Streptozotocin (STZ)-induced diabetic neuropathy, Von Frey allodynia. Conditions: for Tactile allodynia (Von Frey): 30 min after administration. In kind it is in vivo. The procedure:
Diabetes was induced by a 0.5 ml injection of streptozotocin (60 mg/kg) dissolved in citrate buffer (pH=6) into the tail vein of each rat. The development of diabetes was confirmed by measuring the blood glucose levels (BGL) of all animals on study day 3 (BGL>300 mg/dL). […] These animals were tested again for their BGL at study day 23.
(2S,3R)—N-2-((3-pyridinyl)methyl)-1-azabicyclo[2.2.2]oct-3-yl)-3,5-difluorobenzamide (0.1, 1 or 10 mg/kg p.o.) was administered as a solution of the hydrochloride salt in water once daily starting on study day 14 or study day 16 and continuing through study day 21 or 23, respectively. The control article gabapentin (in 0.9% saline, 150 mg/kg i.p.) was only administered on allodynia test days. Test item, vehicle or control article administration was based on evaluation of allodynia on study day 14. If allodynia was not present on study day 14, the animal was evaluated again at study day 16. Pain response was measured either on study days 14 and 21 or 16 and 23, 30 minutes after Test Item administration.
For the allodynia assessments, Von Frey filaments were used according to the methods of Chaplan and colleagues (1994). Briefly, the rats were placed in an enclosure and positioned on a metal mesh surface, but allowed to move freely. The rats' cabins were covered with red cellophane to diminish environmental distributions. The test began after cessation of exploratory behavior.
When the tip of a Von Frey fiber of given length and diameter was pressed against the skin at right angles, the force of application increases as long as the researcher continued to advance the probe until the fiber bent. After the fiber bent, the probe was advanced, causing the fiber to bend more, but without additional force being applied. The animal would indicate sensation by pulling back its paw. In the absence of a paw withdrawal response to the initially selected filament, a stronger stimulus was presented: in the event of paw withdrawal, the next weaker stimulus was chosen. In this fashion, the resulting pattern of positive and negative responses was used to determine the paw withdrawal threshold.
The set of Von Frey monofilaments provide an approximate logarithmic scale of actual force and a linear scale of perceived intensity. Below is a table showing the force (g) and its corresponding size of monofilaments.
All normally distributed data are presented as means±SEM, as well as the animals' individual values followed by a student T-test (Software: Microsoft® Excel). A p value<0.05 is considered to represent a significant difference. Due to the non-normal distribution of the allodynia data, descriptions of those data are provided as both mean (+SEM) and median values in order to represent their imprecise nature and skewed distribution.

For data set [7], the system named is ovalbumin-sensitized mice. Nature of the data set: White blood cell and differential cell counts in BALF. In kind it is in vivo, mouse. As to the method: as §1

We go through one molecule from patent publication US9173876B2, “Preparation and therapeutic applications of (2S,3R)-N-2-((3-pyridinyl)methyl)-1-azabicyclo[2.2.2]oct-3-yl)-3,5-difluorobenzamide” (Targacept, Inc., priority 2009, dated 2015).

Sequence of α7 nicotinic ACh receptors (P36544 23-502): as above

Regarding `O=C(N[C@@H]1C2CCN(CC2)[C@H]1Cc1cccnc1)c1cc(F)cc(F)c1` [Compound A], in data set [1], the “Functional mode at the α7 NNR” value is “partial agonist”. Besides, in data set [2], the Water solubility result is reported as “limited”. The “Methacholine-induced increase in Penh values” is “significant inhibition” in data set [3] (10 mg/kg IT qd); “significant inhibition” in data set [3] (0.1, 1, and 10 mg/kg bid s.c.). Also, in data set [3] (0.1, 1 and 10 mg/kg bid s.c. and 10 mg/kg i.t.), the “Protection against airway hyper-responsiveness (summary)” value is “significant protection against airway hyper-responsiveness”. Moreover, in data set [4], the “Analgesic effect on CFA-induced thermal hyperalgesia” value is on record as “not associated with any significant analgesic effect”. In addition, the “Hump current on application of compound following ACh” value in data set [5] (200 nM compound with ACh, Curve 3 FIG. 7B) is on record as “profound “hump” current”. Further, the “Current produced by compound alone” value in data set [5] (200 nM, 5 second application, Curve 2 FIG. 7B) is reported as “do not produce robust macro currents”. For the same molecule, the “Concentration at EMAX of hump current” value in data set [5] (100-500 nM range, n=4, FIG. 7C) is listed as “approximately 500 nM”. Further, in data set [5] (FIG. 6), the “Effect on ACh-induced current on co-application with ACh” value is recorded as “enhanced ACh-induced current”. Moreover, in data set [6] (1 mg/kg and 10 mg/kg, compared to vehicle, FIG. 14), the “Diabetic neuropathy pain, Von Frey assessment” value was “effective in reducing diabetic neuropathy pain”. Moreover, the “Tactile allodynia (Von Frey)” value in data set [6] (1 mg/kg p.o., study days 14/16, vs pretreatment p<0.01, vs vehicle p<0.05) was “inhibited allodynia”; in data set [6] (1 mg/kg p.o., study days 21/23, vs pretreatment p=0.012), “inhibited allodynia”; in data set [6] (10 mg/kg p.o., study days 14/16, vs pretreatment p=0.012), “inhibited allodynia”; in data set [6] (10 mg/kg p.o., study days 21/23, vs vehicle p<0.05), “inhibited allodynia”. Further, in data set [7] (10 mg/kg SC), the “Monocytes in BALF” value was “reduced”. Moreover, in data set [7] (0.1 and 1 mg/kg SC), the “Total WBC and eosinophils in BALF” value is on record as “significantly reduced”. For the same molecule, the “Lymphocytes in BALF” value in data set [7] (0.1 and 1 mg/kg SC and 10 mg/kg IT) is “reduced”. The “Eosinophils and white blood cells in BALF (summary)” value in data set [7] (multiple administrations, lacks a consistent dose-response relationship) was “significant reduction in eosinophils and white blood cells in BALF”.
